The values below come from patent publication US7820379B2, “Process for high throughput screening of CpG-based immuno-agonist/antagonist” (Coley Pharmaceutical GmbH, priority 2000, dated 2010).

Type in all cases: cell-based
The target in data set [1] is T1, human TLR9 (Homo sapiens, UniProt Q9NR96, H530R/Q688R).
T1 construct: expressed in transfected cells
T1 sequence (Q9NR96 26-1032 H530R/Q688R): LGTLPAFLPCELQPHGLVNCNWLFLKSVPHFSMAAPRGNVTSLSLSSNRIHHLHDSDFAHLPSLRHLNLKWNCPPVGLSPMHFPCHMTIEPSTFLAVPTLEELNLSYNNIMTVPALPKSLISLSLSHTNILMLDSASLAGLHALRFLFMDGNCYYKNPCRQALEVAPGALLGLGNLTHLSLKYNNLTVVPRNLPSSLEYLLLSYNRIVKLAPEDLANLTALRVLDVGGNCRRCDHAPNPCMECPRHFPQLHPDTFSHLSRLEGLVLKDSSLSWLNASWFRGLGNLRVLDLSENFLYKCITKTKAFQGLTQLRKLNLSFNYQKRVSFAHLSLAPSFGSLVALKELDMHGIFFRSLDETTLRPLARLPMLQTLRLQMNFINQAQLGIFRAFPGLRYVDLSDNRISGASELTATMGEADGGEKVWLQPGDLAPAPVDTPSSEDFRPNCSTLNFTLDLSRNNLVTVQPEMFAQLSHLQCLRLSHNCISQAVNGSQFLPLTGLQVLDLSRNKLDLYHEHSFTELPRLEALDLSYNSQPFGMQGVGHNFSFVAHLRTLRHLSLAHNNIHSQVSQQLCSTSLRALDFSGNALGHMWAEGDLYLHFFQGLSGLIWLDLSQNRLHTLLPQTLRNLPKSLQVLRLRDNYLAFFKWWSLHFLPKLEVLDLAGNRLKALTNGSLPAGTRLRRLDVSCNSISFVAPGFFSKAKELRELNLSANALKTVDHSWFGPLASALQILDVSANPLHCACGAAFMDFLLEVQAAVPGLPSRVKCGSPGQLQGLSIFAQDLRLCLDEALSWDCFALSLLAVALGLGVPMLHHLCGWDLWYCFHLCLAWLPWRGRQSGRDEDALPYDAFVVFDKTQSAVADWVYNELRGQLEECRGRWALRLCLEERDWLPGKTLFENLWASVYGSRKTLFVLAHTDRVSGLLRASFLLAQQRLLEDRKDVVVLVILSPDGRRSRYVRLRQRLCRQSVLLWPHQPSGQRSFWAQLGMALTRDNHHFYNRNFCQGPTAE
The data set can be described thus: NF-κB-luciferase activation in 293 cells transfected with human TLR9 (293-hTLR9-luc). The settings on record: 12 hours.

The next data set addresses T2, murine TLR9 (Mus musculus, UniProt Q9EQU3, L378S/Q579H/T325N/T573A/T867A).
T2 construct: additional primers were designed for amplification of the complete mouse TLR9 cDNA; expressed in transfected cells
T2 sequence (Q9EQU3 26-1032 T325N/L378S/T573A/Q579H/T867A): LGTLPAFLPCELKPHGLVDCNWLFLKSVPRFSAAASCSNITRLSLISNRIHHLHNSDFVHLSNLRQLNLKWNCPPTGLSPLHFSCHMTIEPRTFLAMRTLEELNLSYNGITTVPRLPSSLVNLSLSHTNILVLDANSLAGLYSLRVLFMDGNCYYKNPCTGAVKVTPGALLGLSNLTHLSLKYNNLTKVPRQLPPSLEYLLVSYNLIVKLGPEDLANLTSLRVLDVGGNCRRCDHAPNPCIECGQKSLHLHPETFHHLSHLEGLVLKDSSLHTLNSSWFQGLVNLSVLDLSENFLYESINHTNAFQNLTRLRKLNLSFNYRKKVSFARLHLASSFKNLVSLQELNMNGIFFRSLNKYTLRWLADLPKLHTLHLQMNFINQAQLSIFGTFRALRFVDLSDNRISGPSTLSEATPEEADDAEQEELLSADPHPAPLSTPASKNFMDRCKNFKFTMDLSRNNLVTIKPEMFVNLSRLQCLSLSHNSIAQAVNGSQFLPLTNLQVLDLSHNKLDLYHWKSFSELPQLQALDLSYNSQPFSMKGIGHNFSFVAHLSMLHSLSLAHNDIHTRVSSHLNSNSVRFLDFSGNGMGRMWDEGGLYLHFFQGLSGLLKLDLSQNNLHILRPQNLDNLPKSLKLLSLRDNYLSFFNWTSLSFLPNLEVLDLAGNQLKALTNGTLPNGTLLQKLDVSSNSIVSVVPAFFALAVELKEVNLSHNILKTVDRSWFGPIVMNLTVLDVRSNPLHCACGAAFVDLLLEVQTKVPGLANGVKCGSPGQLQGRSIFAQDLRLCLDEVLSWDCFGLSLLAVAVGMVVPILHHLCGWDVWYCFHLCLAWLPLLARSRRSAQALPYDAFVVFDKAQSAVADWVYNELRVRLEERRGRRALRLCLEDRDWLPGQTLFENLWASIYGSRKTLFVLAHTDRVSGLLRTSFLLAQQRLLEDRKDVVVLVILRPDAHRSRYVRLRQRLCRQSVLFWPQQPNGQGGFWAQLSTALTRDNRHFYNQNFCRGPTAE
The data set can be described thus: NF-κB-luciferase activation in 293 cells transfected with murine TLR9 (293-mTLR9-luc). To be noted: for EC50: ODN concentration of half-maximal activation, 293-mTLR9-luc cells, NF-κB-driven luciferase readout, 12 hours, read-out: 293-mTLR9 Kac. The text has this:
Human fibroblast 293 cells were transiently transfected with mTLR9 and the NF-κB-luc construct (FIG. 2). Similar data was obtained for IL-8 production (not shown). Thus expression of TLR9 (human or mouse) in 293 cells results in a gain of function for CpG-DNA stimulation similar to hTLR4 reconstitution of LPS responses.
To generate stable clones expressing human TLR9, murine TLR9, or either TLR9 with the NF-κB-luc reporter plasmid, 293 cells were transfected in 10 cm plates (2×10^6 cells/plate) with 16 μg of DNA and selected with 0.7 mg/ml G418 (PAA Laboratories GmbH, Cölbe, Germany). The clones were also screened for IL-8 production or NF-κB-luciferase activity after stimulation with ODN. Four different types of clones were generated. • 293-hTLR9-luc: expressing human TLR9 and 6-fold NF-κB-luciferase reporter • 293-mTLR9-luc: expressing murine TLR9 and 6-fold NF-κB-luciferase reporter • 293-hTLR9: expressing human TLR9 • 293-mTLR9: expressing murine TLR9
Similar results were obtained utilizing IL-8 production with the stable clone 293-hTLR9. 293-mTLR9-luc were also stimulated with CpG-ODN (1668, 2 μM; […], SEQ ID NO:84), GpC-ODN (1668-GC, 2 μM; […], SEQ ID NO:85), Me-CpG-ODN (1668 methylated, 2 μM; TCCATGAZGTTCCTGATGCT, Z=5-methylcytidine, SEQ ID NO:207), LPS (100 ng/ml) or media, as measured by monitoring NF-κB activation (FIG. 5). Similar results were obtained utilizing IL-8 production with the stable clone 293-mTLR9. Results are representative of at least two independent experiments. […] These cells can be used for screening of optimal ligands for innate immune responses driven by TLR9 in multiple species.
Because stable TLR9 transfectants mirrored primary cell responsiveness to CpG-DNA (FIGS. 4 and 5), it was hypothesized that stable transfectants could potentially discern species-specific CpG-motifs through TLR9 receptors. Therefore 293-hTLR9-luc (expressing human TLR9 and 6-fold NF-κB-luc reporter), 293-mTLR9-luc (expressing murine TLR9 and 6-fold NF-κB-luc reporter), 293-hTLR9 (expressing human TLR9) and 293-mTLR9 (expressing murine TLR9) clones were tested for CpG-DNA motif responsiveness. […] Depicted are both NF-κB-driven luciferase and IL-8 production as readout. […] After lysis of the cells luciferase can be detected photometrically based on an enzymatic reaction by luciferase which creates photons. IL-8 production was monitored using enzyme-linked immunosorbent assay (ELISA). […] Results shown in FIG. 11 are representative of three independent experiments. Strikingly, CpG-motif sequence specificity was conferred in a species-specific manner by TLR9. Additionally, the half-maximal concentration for either 2006 or 1668 appears nearly the same as those determined on primary cells (compare FIG. 10 and FIG. 11).
(§1) Although 2006 and 1668 are discussed in terms of CpG-motif differences, they are very different in several aspects (see Table 5 for comparison). The lengths are different, 24 versus 20 nucleotides, and 2006 has four CG dinucleotides compared to one in 1668. Additional differences are the CG position relative to the 5′ and 3′ ends and also 5′ sequence differences. In order to determine if motif specificity is a quality of the motif and not the global sequence environment, for this experiment several sequences were produced holding these variables constant. As a starting point, the 1668 sequence was modified by converting the central C to T and the distal TG to CG, thereby creating a second CG in the resulting sequence 5000 (SEQ ID NO:130, Table 5). Then point nucleotide changes were made, progressing toward a 2006-like sequence, 5007 (SEQ ID NO:98). The ODN 5002 (SEQ ID NO:132) is most like 1668 with the exception that C's at positions 12 and 19 have been converted to T's. […]

The target in data set [2] is T1, human TLR9. The data set can be described thus: NF-κB-luciferase activation in 293 cells transfected with human TLR9 (293-hTLR9-luc). The settings on record: ODN concentration of half-maximal activation; 293-hTLR9-luc cells, NF-κB-driven luciferase readout, 12 hours; read-out: 293-hTLR9 Kac.
Text: Since NF-κB activation is central to the IL-1/TLR signal transduction pathway (Medzhitov R et al., Mol Cell 2:253-258 (1998); Muzio M et al., J Exp Med 187:2097-2101 (1998)), cells were transfected with hTLR9 or co-transfected with hTLR9 and a NF-κB-driven luciferase reporter construct. Human fibroblast 293 cells were transiently transfected with (FIG. 1A) hTLR9 and a six-times NF-κB-luciferase reporter plasmid (NF-κB-luc, kindly provided by Patrick Baeuerle, Munich, Germany) or (FIG. 1B) with hTLR9 alone. After stimulus with CpG-ODN (2006, 2 μM, […], SEQ ID NO:112), GpC-ODN (2006-GC, 2 μM, […], SEQ ID NO:118), LPS (100 ng/ml) or media, NF-κB activation by luciferase readout (8 h, FIG. 1A) or IL-8 production by ELISA (48 h, FIG. 1B) were monitored. Results are representative of three independent experiments.
To generate stable clones expressing human TLR9, murine TLR9, or either TLR9 with the NF-κB-luc reporter plasmid, 293 cells were transfected in 10 cm plates (2×10^6 cells/plate) with 16 μg of DNA and selected with 0.7 mg/ml G418 (PAA Laboratories GmbH, Cölbe, Germany). The clones were also screened for IL-8 production or NF-κB-luciferase activity after stimulation with ODN. Four different types of clones were generated. • 293-hTLR9-luc: expressing human TLR9 and 6-fold NF-κB-luciferase reporter • 293-mTLR9-luc: expressing murine TLR9 and 6-fold NF-κB-luciferase reporter • 293-hTLR9: expressing human TLR9 • 293-mTLR9: expressing murine TLR9 […]
Because stable TLR9 transfectants mirrored primary cell responsiveness to CpG-DNA (FIGS. 4 and 5), it was hypothesized that stable transfectants could potentially discern species-specific CpG-motifs through TLR9 receptors. Therefore 293-hTLR9-luc (expressing human TLR9 and 6-fold NF-κB-luc reporter), 293-mTLR9-luc (expressing murine TLR9 and 6-fold NF-κB-luc reporter), 293-hTLR9 (expressing human TLR9) and 293-mTLR9 (expressing murine TLR9) clones were tested for CpG-DNA motif responsiveness. […] Depicted are both NF-κB-driven luciferase and IL-8 production as readout. […] After lysis of the cells luciferase can be detected photometrically based on an enzymatic reaction by luciferase which creates photons. IL-8 production was monitored using enzyme-linked immunosorbent assay (ELISA). FIG. 11 depicts clones stimulated with ODN 2006 (filled circle), ODN 2006-GC (open circle), ODN 1668 (filled triangle) or ODN 1668-GC (open triangle) at indicated concentrations and NF-κB activation or IL-8 production were measured after 10 and 48 hours, respectively. Results shown in FIG. 11 are representative of three independent experiments. Strikingly, CpG-motif sequence specificity was conferred in a species-specific manner by TLR9. Additionally, the half-maximal concentration for either 2006 or 1668 appears nearly the same as those determined on primary cells (compare FIG. 10 and FIG. 11).
as §1

Regarding “5′-HHHHHHHHHHHHHHWGGGGG-3′ (chemistry not given here) [blocking ODN, H=A, T, C; W=A, T]”, in the data set with human TLR9 [1] (293-hTLR9-luc cells, CpG-ODN 0.5 μM, increasing concentrations of blocking ODN), the “blockade of CpG-ODN-induced NF-κB activation” value is given as “sensitive to non-CpG-ODN blockade”. Besides, the “TNF-driven NF-κB signal” value in the data set with human TLR9 [1] (293-hTLR9-luc cells, TNF-α 10 ng/ml, increasing concentrations of blocking ODN) was “not diminished”.
In the case of `CO/C1=C\C(C)=C\[C@@H](C)[C@@H](O)[C@@H](C)C/C(C)=C/C=C/[C@H](OC)[C@@H]([C@@H](C)[C@@H](O)[C@H](C)[C@@]2(O)C[C@@H](O)[C@H](C)[C@@H](C(C)C)O2)OC1=O` [Bafilomycin A], the “CpG-ODN induction of NF-κB” value at human TLR9 [1] (293-hTLR9-luc cells preincubated 30 min with 10 nM, CpG-ODN 2006 0.5 μM) was “fully blocks”. Also, the “IL-1 and TNF induction of NF-κB” value on human TLR9 [1] (293-hTLR9-luc cells preincubated 30 min with 10 nM, IL-1 10 ng/ml or TNF-α 10 ng/ml) is recorded as “unaffected”.
As for “TCCATGACGTCATTGATGTT (listed as DNA, chemistry not fully specified) [ODN 5010]”, the EC50 with murine TLR9 is above 10 µM.
Consider “TCCATGACGTCCTTGATGTT (listed as DNA, chemistry not fully specified) [ODN 5009]”, for which, in the data set with murine TLR9 (ACGTT versus ACGTC (5002 versus 5009)), the 293-mTLR9 responsiveness result is “completely destroyed 293-mTLR9 responsiveness”. The EC50 with murine TLR9 was above 10 µM.
As for “TCCATGACGTTATTGATGTT (listed as DNA, chemistry not fully specified) [ODN 5008]”, in the data set with murine TLR9, the EC50 was 0.04 µM.
For the molecule “TCCATGACGTTCTTGATGTT (listed as DNA, chemistry not fully specified) [ODN 5002]”, in the data set with human TLR9 [2], the EC50 turned out to be 7 µM.
The same measure, in the same setting: for “TCCATGACGTTTTTGATGTT (listed as DNA, chemistry not fully specified) [ODN 5003]” the value was 10 µM.
